Columns and labels:
Hippocampal cells = assay: Aggregate cell cultures of hippocampal cells (aggregates counted after 24 h); assay type: cell-based, rat; conditions: ligand present during the aggregation of cells; quantified 24 h after seeding
Procedure: A variety of suitable fragments and variants of NCAM has been discussed above. To be able to identify candidate ligands capable of stimulating NCAM function, where the NCAM function means the function of the NCAM molecule, the inventors have established a simple cell culture system (aggregate cell cultures) that permits a quantitative evaluation of the effect of various ligands. Hippocampal cells are provided from rat embryos. The cells are grown in a defined medium and dissociated cells are seeded in microtiter plates. After 24 h, the, amount of aggregates are counted. Compounds to be tested are added to the cell suspension immediately before seeding of the cells in micro-wells. When NCAM Ig1 binding ligands are present during the aggregation of cells, smaller, but more numerous cell aggregates are seen when quantified 24 h after seeding of the cells. The inhibiting effect of the ligands results in a blockage of the formation of large aggregates from many small aggregates as the adhesion, properties of NCAM are blocked. Thus, small but more numerous cell aggregates are seen in the presence of active ligands.

[1] = test system: cells presenting NCAM or NCAM ligands; assay: Prevention of cell death (survival) of cells presenting NCAM or NCAM ligands; assay type: cell-based; conditions: general statement; data only in figures
Procedure: PC12 cells were differentiated by plating them in 96-well tissue culture plates in defined medium (DMEM) supplemented with NGF (50-100 ng/ml) and were normally used after 6-8 days of NGF treatment. NGF withdrawal was performed as follows: the medium was removed, and the cells were quickly rinsed twice with pre-warmed medium, and then re-fed with DMEM supplemented with C3d. After 2 days of incubation cells were assayed for cell survival by measuring reduction of a novel tetrazolium compound, MTS (Promega, USA), which is bioreduced by cells into a formazan that is soluble in tissue culture medium. The absorbance of the formazan at 490 nm was measured directly from 96 well assay plates without additional processing. The conversion of MTS into the aqueous soluble formazan was accomplished by dehydrogenase enzymes found in metabolically active cells. The quantity of formazan product as measured by the amount of 490 nm absorbance was directly proportional to the number of living cells in culture (Yao and Cooper, 1995; CellTiter 96 Aqueous non-radioactive cell proliferation assay, Promega, 1996; Eilers et al., 1998).
PC12 cells were plated in 96-well tissue culture plates in the absence of growth factors (serum starvation) for 6 days in DMEM supplemented with C3d and assayed for cell survival by reduction of MTS, as described above (Gollapudi and Oblinger, 1999; Williams and Doherty, 1999). […]

cells presenting NCAM = conditions: by activating a signalling pathway identical to that activated by homophilic NCAM binding; cited from earlier work
NCAM Ig1 domain = biological target: T1, NCAM Ig1 domain (Rattus norvegicus, UniProt P13596); assay: Real-time biomolecular interaction analysis (BIAlite surface plasmon resonance), Ig1 applied to immobilised dendrimer peptides; assay type: binding; conditions: dendrimer peptides immobilised on sensor chip CM5, 25° C., HBS; two independent experiments
T1 construct: The Ig1 domain of NCAM was produced as a recombinant protein in Pichia pastoris; made in house; host or cells: Pichia pastoris strain His 4 GS-115 (pHIL-S1 plasmid)
Excerpt: The Ig1 domain of NCAM was produced as a recombinant protein in Pichia pastoris. The cDNA fragment of rat NCAM was synthesised by PCR, and amplified cDNA was subcloned into an Xho I/Bam HI site of the pHIL-S1 plasmid (Invitrogen Corporation, San Diego, USA). An E. coli strain Top 10 F′ (Invitrogen Corporation, San Diego, USA) was used for transformation. The recombinant plasmid was linearised with Nsi I and used for transformation of Pichia pastoris strain His 4 GS-115 (Invitrogen Corporation, San Diego, USA). Transformation and selection was performed according to a Pichia Expression Kit manual supplied by the manufacturer. The recombinant protein was designated as Ig1 PP (Ig-like domain 1 produced in P. pastoris) The authenticity of Ig1 PP was secured by amino acid sequencing and MALDI-MS confirming the expected molecular weight of 11 kD. Cells were grown essentially according to the Pichia Expression Kit manual. After induction supernatant from growing cells was filtered through a […] filter, concentrated by ultrafiltration and purified by gel filtration using a Sephadex G-50 column (Pharmacia Biotech AB, Sweden) (Thomsen et al., 1996).
Real-time biomolecular interaction analysis was performed using a BIAlite instrument (Pharmacia Biosensor AB, Sweden). All experiments were performed at 25° C. using Hepes buffered saline (HBS: 10 mM Hepes pH 7.4, 150 mM NaCl, 3.4 mM EDTA, 0.005% v/v Surfactant P20 (Pharmacia Biosensor, Sweden) as running buffer. The flow rate was […]. Dendrimer peptides C3d, D3d and D4d (four peptide-monomers coupled to a backbone consisting of three lysines) were immobilised on a sensor chip CM5 (Pharmacia Biosensor AB, Sweden) using the following procedure: the chip was activated by […] 0.05 M N-hydroxysuccinimide, 0.2 M N-ethyl-N′-(dimethylaminopropyl)carbodiimide; peptides were immobilised using […] peptide solution in HBS at a concentration of 60 μg/ml; finally the chip was blocked by 35 μl 1 M ethanolamine hydrochloride pH 8.5. Binding of Ig1 to dendrimer peptides: […] of Ig1 or Ig1I at the indicated concentrations were applied. […]

T1 sequence (P13596 20-111 limits assumed): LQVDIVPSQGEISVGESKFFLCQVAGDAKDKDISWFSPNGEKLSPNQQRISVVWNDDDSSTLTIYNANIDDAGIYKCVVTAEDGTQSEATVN

Substance	inhibition of aggregation of hippocampal cells (Hippocampal cells)	preventing cell death [1]	stimulation of outgrowth (cells presenting NCAM)	binding to the NCAM Ig1 domain (NCAM Ig1 domain)
ASKKPKRNIKA (listed as Homo sapiens) [C3]	inhibited aggregation	capable of preventing cell death	stimulates outgrowth	
C3d: Dendrimer of C3: four peptide-monomers coupled to a backbone consisting of three lysines (ASKKPKRNIKA)				bind to the NCAM Ig1 domain
D3d: Dendrimer of D3: four peptide-monomers coupled to a backbone consisting of three lysines (AKKERQRKDTQ)				bind to the NCAM Ig1 domain
D4d: Dendrimer of D4: four peptide-monomers coupled to a backbone consisting of three lysines (ARALNWGAKPK)				bind to the NCAM Ig1 domain

Source: patent US20070116702A1, “Survival promoting NCAM binding and MCAM ligand binding compounds” (priority 2001, published 2007)
